According to patent US8841317B2 (Emory University, priority 2010, dated 2014):
Entries after “also recorded” stand apart in the source; their conditions may differ. Read-outs that look alike come from different tables or passages of the source.

Tests used:
THP-1 cells [1] = assay: LDH release into supernatant; format: cell-based, human; details: THP-1 cells incubated 48 hr with 50 μM; DMSO control 5 IU/L
Procedure: (§1) Biochim Biophys Acta 887: 13-22.]. […] Cellular aliquots (100 μl) were taken daily and cells were diluted 1:1 with the vital dye trypan blue 0.4% solution (Cellgro, Mediatech Inc, Herndon, Va.) in PBS and viable cells were counted. LDH release into the supernatant was also measured to assess the toxicity of the drugs. […] Cell Microbiol 7: 1251-1262.].

[2] = system: ScCr (TLR4-deficient) cells; assay: Sterile inflammation: nitric oxide release after murine TNFα stimulation; format: cell-based; details: 50 μM for 1 hr or overnight, then murine TNFα 1000-31.2 pg/ml
Procedure: (§2) TLR ligand concentrations ranging from (LPS: 10-0.31 picomolar (pM) and Pam3CSK4: 10-0.31 μg/ml) and non-TLR ligands (mouse IP-10 and TNFα: 1000-31 pg/ml) were made in duplicate wells using sterile PBS by serial fold dilutions in the 96-well tissue culture plates at 50 μl final volumes. Freshly grown THP-1cells, RAW264.7, ScCr, HEK-TLR2/6 and HEK-TLR4-MD2-CD14 transfected cells each adjusted to 10^6 cell/ml and 250 μl aliquots were dispensed into each well at a final cell density of 250×10^3 in the designated 96-well plates. The plates were then incubated overnight at 37° C. with 5% CO2 and humidity. Supernatants from stimulated cells were harvested and stored at −20° C. until further use.
(§3) Freshly grown adherent RAW 246.7 or 23ScCr (TLR4-deficient) macrophages were scraped by a cell scraper. Harvested cells were washed and re-suspended in Dulbecco's complete media, counted and adjusted to 10^6 cell/ml. […] aliquots were then dispensed into each well at final 250×10^3 cell density in the designated 96-well plates prior to stimulation with TLR ligands or recombinant cytokines as mentioned above. […] Nitric oxide release was quantified using the Griess chemical method as previously described [Zughaier S M, Tzeng Y L, Zimmer S M, Datta A, Carlson R W, et al. (2004) Neisseria meningitidis lipooligosaccharide structure-dependent activation of the macrophage CD14/Toll-like receptor 4 pathway. […]

[3] = system: RAW264 (TLR4-sufficient) cells; assay: Sterile inflammation: nitric oxide release after murine IP-10 (CXCL10) stimulation; format: cell-based; details: 50 μM for 1 hr or overnight, then murine IP-10 1000-31.2 pg/ml
Procedure: as §2, §3

[4] = system: human or murine macrophages; assay: Cellular viability (trypan blue exclusion, morphology, LDH); format: cell-based, human and murine
Procedure: as §1

THP-1 macrophages = assay: Respiratory burst ROS release (lucigenin chemiluminescence); format: cell-based, human
Procedure: The enhanced chemiluminescence method was used as previously described [Zughaier S M, Ryley H C, Jackson S K (1999) A melanin pigment purified from an epidemic strain of Burkholderia cepacia attenuates monocyte respiratory burst activity by scavenging superoxide anion. Infect Immun 67: 908-913.]. Briefly, freshly grown THP-1 cells were adjusted to 2×10^6/ml, transferred to two large tissue culture flasks labeled as primed or unstimulated. Two pmole/ml LPS were added to prime cells or left unstimulated as control cells. Both flasks were incubated overnight at 37° C. under 5% CO2. […] The cells were collected in universal tubes, washed twice with culture medium and resuspended in standard buffer (4.58 mM KH2PO4, 8.03 mM NaHPO4, 0.5 mM MgCl2, 0.45 mM CaCl2, 1% (w/v) glucose, 0.033% (w/v) KCl, 0.76% (w/v) NaCl and 0.1% (w/v) endotoxin-free bovine serum albumin (pH 7.3) at 2×10^6/ml. The chemiluminescence probe lucigenin (Sigma) was added to the cell suspension (25 μl/ml of cells from 1.0 mM stock solution) and mixed gently. Aliquots (150 μl) of the cellular mixture were transferred into at least quadruplicate wells of a white 96-well plate (FluoroNunc-PolySorp; Nalge Nunc International, Rochester, N.Y.). The respiratory burst was triggered with 50 μl of PMA (1 μM). Chemiluminescence was measured in relative light units (a measure of the number of photons generated by the reaction at each time point). Chemiluminescence was measured using a luminometer (ML3000, Dynatech Laboratories Inc. Chantilly, Va.) and the plate was read immediately and then at 2 min intervals for the next 90 min [Zughaier S M, Ryley H C, Jackson S K (1999) A melanin pigment purified from an epidemic strain of Burkholderia cepacia attenuates monocyte respiratory burst activity by scavenging superoxide anion. Infect Immun 67: 908-9131.

THP-1 human macrophages = assay: TNFα release from TLR ligand-stimulated human macrophages (ELISA); format: cell-based; details: human and murine macrophages; TLR ligands LPS or Pam3CSK4
Procedure: as §2
(§4) Released cytokines TNFα and IL-6 and chemokines CXCL10 (IP-10), MIP-2α and IL-8 were quantified by DuoSet ELISA (R&D Systems, Minneapolis, Minn.) following the manufacturer's instructions as previously described [Zughaier S M, Zimmer S M, Datta A, Carlson R W, Stephens D S (2005) Differential induction of the toll-like receptor 4-MyD88-dependent and -independent signaling pathways by endotoxins. Infect Immun 73: 2940-2950.].

[5] = system: RAW 264.7 murine macrophages; assay: Nitric oxide release from TLR ligand-stimulated murine macrophages (Griess method); format: cell-based; details: TLR ligands LPS or Pam3CSK4
Procedure: as §2, §3

[6] = system: HEK293 cells transfected with TLR2 alone or TLR2/6 receptors; assay: Pam3CSK4-induced IL-8 release (ELISA); format: cell-based, human; details: no drug = 1400 pg/ml
Procedure: as §2, §4

[7] = doses as high as 300 mg/kg; cited from earlier work
[8] = system: human macrophage cells THP-1; assay: Autophagy by electron microscopy; format: cell-based; details: overnight, LPS 2 pM plus drug 50 μM
Procedure: Human macrophage cells were fixed for 1 hr with 2% glutaraldehyde in 0.1M sodium cacodylate buffer, rinsed in the same buffer and the post-fixed with 2% osmium tetroxide in the same buffer for 1 hr at room temperature. The samples were then dehydrated with a graded ethanol series through 3×100%, 2× in propylene oxide and embedded in Spurr's resin. Sections were stained with 1% uranyl acetate and lead citrate. Electron microscopy imaging was then performed at a magnification of 3597×.

THP-1 cells [9] = assay: Detection of acidic vesicular organelles (acridine orange); format: cell-based, human; details: 24 hr treatment, acridine orange 1 μg/ml
Procedure: THP-1 cells were plated on cover slips and allowed to attach. Following treatments for 24 hr with DMSO alone (control), Red-Br-nos, LPS, Red-Br-nos and LPS, cells were stained with 1 μg/ml acridine orange for 15 min, washed with PBS, and examined under a Zeiss fluorescence microscope using a 40× objective lens [Herman-Antosiewicz A, Johnson D E, Singh S V (2006) Sulforaphane causes autophagy to inhibit release of cytochrome C and apoptosis in human prostate cancer cells. Cancer Res 66: 5828-5835.].

Row | LDH release (THP-1 cells [1]) | Compound | nitric oxide release versus no drug [2] | nitric oxide release versus no drug [3] | cellular toxicity / viability ([4]; human and murine macrophages) | ROS release, LPS primed cells (THP-1 macrophages; 50 μM added just prior to PMA-triggered respiratory burst) | ROS release, unprimed macrophages (THP-1 macrophages; 50 μM added just prior to respiratory burst) | ROS release, primed macrophages (THP-1 macrophages; added 2 hr prior to triggering the respiratory burst) | TLR-mediated TNFα release (THP-1 human macrophages) | TLR-mediated nitric oxide (NO) release [5] | IL-8 release [6] | toxicity [7] | autophagy-related vacuolation (electron micrographs) [8] | acidic vesicular organelles (AVOs) (THP-1 cells [9]) | cellular toxicity / viability [4]
1 | 7 IU/L | COc1ccc2c(c1OC)C(=O)O[C@@H]2[C@H]1c2c(cc3c(c2OC)OCO3)CCN1C [noscapine, (S)-6,7-dimethoxy-3-((R)-4-methoxy-6-methyl-5,6,7,8-tetrahydro[1,3]-dioxolo-[4,5-g]isoquinolin-5-yl)isobenzo-furan-1(3H)-one] | not significant | not significant | did not induce inflammatory responses or impair cellular viability | enhanced ROS release | not in unprimed macrophages | no change in ROS release | – | – | – | – | – | – | –
2 | 10 IU/L | COc1ccc2c(c1OC)CO[C@@H]2[C@H]1c2c(c(Br)c3c(c2OC)OCO3)CCN1C [Red-Br-nos, (R)-9-bromo-5-((S)-4,5-dimethoxy-1,3-dihydroisobenzofuran-1-yl)-4-methoxy-6-methyl-5,6,7,8-tetrahydro-[1,3]di-oxolo-[4,5-g]isoquinoline] | – | – | – | – | – | – | dampened | dampened | 400 pg/mL | non-toxic | increased vacuolation in the cytoplasm | confirmed the drug-induced autophagic activity; also recorded: formation (red fluorescence) of acridine orange-accumulating acidic vesicular organelles (AVOs) | without evidence of cellular toxicity

Row | Compound | LDH release (THP-1 cells [1]) | nitric oxide release versus no drug [2] | nitric oxide release versus no drug [3] | cellular toxicity / viability ([4]; human and murine macrophages) | ROS release, LPS primed cells (THP-1 macrophages; 50 μM added just prior to PMA-triggered respiratory burst) | ROS release, unprimed macrophages (THP-1 macrophages; 50 μM added just prior to respiratory burst) | ROS release, primed macrophages (THP-1 macrophages; added 2 hr prior to triggering the respiratory burst) | TLR-mediated TNFα release (THP-1 human macrophages) | TLR-mediated nitric oxide (NO) release [5] | IL-8 release [6] | toxicity [7] | autophagy-related vacuolation (electron micrographs) [8] | acidic vesicular organelles (AVOs) (THP-1 cells [9]) | cellular toxicity / viability [4]
3 | COc1ccc2c(c1OC)C(=O)O[C@@H]2[C@H]1c2c(c(Br)c3c(c2OC)OCO3)CCN1C [Br-nos, (S)-3-((R)-9-bromo-4-methoxy-6-methyl-5,6,7,8-tetrahydro-[1,3]dioxolo[4,5-g]isoquinolin-5-yl)-6,7-dimethoxyiso-benzofuran-1(3H)-one] | 8 IU/L | – | – | without evidence of cellular toxicity | – | – | – | dampened | dampened | 650 pg/mL | non-toxic | – | – | –
